Assay results from patent publication US7728033B2, “Mycophenolate mofetil in diabetic nephropathy” (Clinigene International Private Limited, priority 2003, dated 2010).

What was measured:
[1] = test system: patients with type 1 diabetes mellitus and diabetic nephropathy; details: cited from earlier work
[2] = test system: patients with diabetic nephropathy; experiment: Estimated GFR (Cockcroft-Gault formula), open-labeled randomized study; assay type: in vivo, human
Method: A secondary end-point for this study was the GFR value obtained for each patient. This Secondary Endpoint included Estimated GFR, which was calculated using the following formulae: […]
Once all data was collected, Glomerular Filtration Rate GFR) was determined by the Cockcroft-Gault formula.
(§1) Evaluation of the effects of MMF or ACE inhibitors alone or in combination on the status of proteinuria in patients with diabetic nephropathy was an open-labeled, randomized study. This study consisted of three arms as shown below. • 1. treatment with MMF alone • 2. treatment with combination of MMF and lisinopril • 3. treatment with lisinopril alone In addition, there were three phases of the study as shown below.
(§2) Study Products and Dosage: • 1. MMF: The dose of MMF given during the study was 500 mg per oral twice a day throughout the study. • 2. Lisinopril: The starting dose of lisinopril given in the study was 5 mg per oral twice a day. In case of hypertensive patients, the dose could be titrated upwards based on investigator's discretion, which in turn was based on the patient's “safety end point”. • 3. MMF+Lisinopril: In the patients who received both the drugs, the dose of MMF was 500 mg per oral twice a day and lisinopril was 5 mg per oral twice a day. In the case of hypertensive patients, the dose of lisinopril could be titrated upwards based on investigator's discretion, which in turn was based on the patient's “safety end point”.

[3] = test system: patients with diabetic nephropathy; experiment: 24-hour urine protein (proteinuria), open-labeled randomized study; assay type: in vivo, human; set-up: Mean 24 h Urine protein, 1 month after treatment at V3 / Result Difference 24 h Urine protein, V3 (1 month) vs baseline V2 / Mean 24 h Urine protein, 3 month after treatment at V4: unit not given here
Method: In this study, a total of 30 patients were planned of which 18 were randomized and subjected to enter into one of the studies in which the patient groups each received MMF alone, lisinopril alone, or a combination of both MMF and lisinopril.
The primary end-point for this study was the proteinuria value obtained from the patients via 24-hour urine protein which was measured using the Calorimetric method Pyrogallol Red/SDS liquid stable single reagent.
as §1
Phase 2: Treatment Phase (6 months): Every patient who qualified the screening phase was assigned one of the treatment arms. During this phase, patients were monitored closely and efficacy and safety parameters are assessed every month.
as §2

[4] = test system: Diabetic rats; details: 8 months; cited from earlier work
[5] = test system: patients with IgA nephropathy; details: MMF 1-1.5g per day vs Prednisone 30-40 mg per day; followed to 72 weeks; preliminary report; cited from earlier work
[6] = test system: patients with lupus nephritis; details: systemic lupus erythomatosis; 0.5 to 1.5 g/d; cited from earlier work
[7] = Benefited patients, lisinopril alone 5 mg twice daily
[8] = Not benefited patients, lisinopril alone 5 mg twice daily
[9] = Benefited patients, MMF alone 500 mg per oral twice a day
[10] = Benefited patients, MMF alone 500 mg twice daily
[11] = Not benefited patients, MMF alone 500 mg per oral twice a day
[12] = Not benefited patients, MMF alone 500 mg twice daily

C[C@H](CS)C(=O)N1CCC[C@H]1C(=O)O [Captopril]
progression of renal disease [1]: prevents or delays the progression of renal disease

NCCCC[C@H](N[C@@H](CCc1ccccc1)C(=O)O)C(=O)N1CCC[C@H]1C(=O)O [lisinopril]
Mean GFR, 1 month after treatment at V3 [2, 7]: 79.16 mL/min | Mean GFR, 3 month after treatment at V4 [2, 7]: 89.55 mL/min | Mean GFR, 6 month after treatment at V5 [2, 7]: 105.9 mL/min | Result Difference GFR, V3 (1 month) vs baseline V2 [2, 7]: -0.09 mL/min | Result Difference GFR, V4 (3 month) vs baseline V2 [2, 7]: 7.95 mL/min | Result Difference GFR, V5 (6 month) vs baseline V2 [2, 7]: 28.5 mL/min | Mean GFR, 1 month after treatment at V3 [2, 8]: 63.97 mL/min | Mean GFR, 3 month after treatment at V4 [2, 8]: 68.76 mL/min | Mean GFR, 6 month after treatment at V5 [2, 8]: 76.4 mL/min | Result Difference GFR, V3 (1 month) vs baseline V2 [2, 8]: 1.91 mL/min | Result Difference GFR, V4 (3 month) vs baseline V2 [2, 8]: 0.13 mL/min | Result Difference GFR, V5 (6 month) vs baseline V2 [2, 8]: -9.4 mL/min | Mean 24 h Urine protein, 1 month after treatment at V3 [3, 7]: 236.66 | Mean 24 h Urine protein, 3 month after treatment at V4 [3, 7]: 161.15 | Mean 24 h Urine protein, 6 month after treatment at V5 [3, 7]: 248.4 | Result Difference 24 h Urine protein, V3 (1 month) vs baseline V2 [3, 7]: −133.6 | Result Difference 24 h Urine protein, V4 (3 month) vs baseline V2 [3, 7]: −268.75 | Result Difference 24 h Urine protein, V5 (6 month) vs baseline V2 [3, 7]: −239.6 | Mean 24 h Urine protein, 1 month after treatment at V3 [3, 8]: 211.25 | Mean 24 h Urine protein, 3 month after treatment at V4 [3, 8]: 289.2 | Mean 24 h Urine protein, 6 month after treatment at V5 [3, 8]: 626 | Result Difference 24 h Urine protein, V3 (1 month) vs baseline V2 [3, 8]: 53.73 | Result Difference 24 h Urine protein, V4 (3 month) vs baseline V2 [3, 8]: 101.47 | Result Difference 24 h Urine protein, V5 (6 month) vs baseline V2 [3, 8]: 254.2 | patients with reduced proteinuria ([3]; lisinopril alone 5 mg twice daily, at the end of 1 month): 42% | patients with reduced proteinuria ([3]; lisinopril alone 5 mg twice daily, at the end of 3 month): 40% | patients with reduced proteinuria ([3]; lisinopril alone 5 mg twice daily, at the end of 6 month): 50%

COc1c(C)c2c(c(O)c1C/C=C(\C)CCC(=O)OCCN1CCOCC1)C(=O)OC2 [MMF, mycophenolate mofetil]
Mean GFR, 1 month after treatment at V3 [2, 9]: 89.3 mL/min | Result Difference GFR, V3 (1 month) vs baseline V2 [2, 9]: 0.27 mL/min | Mean GFR, 3 month after treatment at V4 [2, 10]: 81.85 mL/min | Result Difference GFR, V4 (3 month) vs baseline V2 [2, 10]: -1.35 mL/min | Mean GFR, 1 month after treatment at V3 [2, 11]: 75.26 mL/min | Result Difference GFR, V3 (1 month) vs baseline V2 [2, 11]: 4.40 mL/min | Mean GFR, 3 month after treatment at V4 [2, 12]: 49.9 mL/min | albuminuria, glomerular macrophage infiltration and glomerulosclerosis [4]: did prevent | effect on blood pressure, glomerular dynamics or blood glucose levels [4]: no effect | decreasing proteinuria, protecting renal function and decreasing blood lipid levels [5]: superior to Prednisone | tolerability [6]: well tolerated | Mean 24 h Urine protein, 1 month after treatment at V3 [3, 9]: 112.73 | Result Difference 24 h Urine protein, V3 (1 month) vs baseline V2 [3, 9]: −203.93 | Mean 24 h Urine protein, 3 month after treatment at V4 [3, 10]: 260.8 | Result Difference 24 h Urine protein, V4 (3 month) vs baseline V2 [3, 10]: −136.6 | patients with reduced proteinuria ([3]; MMF alone 500 mg twice daily, at V4 at the end of 3 months): 67% | patients with reduced proteinuria ([3]; MMF alone, after 1 month of treatment (V3 vs V2)): 67% | Mean 24 h Urine protein, 1 month after treatment at V3 [3, 11]: 696.3 | Result Difference 24 h Urine protein, V3 (1 month) vs baseline V2 [3, 11]: 361.7 | Mean 24 h Urine protein, 3 month after treatment at V4 [3, 12]: 305.5
